Results: patent US8227207B2, “Bioactive peptides derived from the proteins of egg white by means of enzymatic hydrolysis” (Consejo Superior de Investigaciones Cientifcas, priority 2004, dated 2012)
Entries after “also recorded” stand apart in the source; their conditions may differ. Residues, ends and D or L forms follow the SMILES beside them.

Legend:
[1] = test system: Wistar-Kyoto rats (WKY); test: Systolic arterial pressure (tail cuff) in normotense Wistar-Kyoto rats; format: in vivo, rat; conditions: highest dose used, intragastric probe
Description: The effect is studied of various identified peptides and of some products containing them (for example egg white hydrolysed with pepsin for 3 hours and the fraction of it less than 3000 Da) on the arterial pressure of spontaneously hypertensive rats (SHR) and Wistar-Kyoto rats (WKY) which are the normotense controls for the SHR.
This study is conducted with SHR (10) and WKY of 17-24 weeks old and weight between 300 and 350 g, coming from Charles River Laboratories España, S. A. The rats are kept in cages of five by five and maintained at a stable temperature of 25° C. with light-dark cycles of 12 hours, ingesting freely available water and food. In order to carry out the measurement of systolic arterial pressure (SAP) “tail cuff” equipment is used (Le5001, Letica) which automatically provides a digital value of the SAP and records and facilitates the cardiac frequency of the animals. Various measurements are made and the average of all of them is obtained in order to achieve a reliable value of the SAP. Before positioning the cuff and transducer in the tail of the rats, the rats are exposed to a temperature of close to 30° C. in order to facilitate dilation of the caudal artery. Also, in order to ensure the reliability of the measurement, the animals are made to get used to the procedure for two weeks prior to conducting each assay in question.
The administration of the products to be assayed is done by means of an intragastric probe in a time margin of between 9 and 10 o'clock in the morning. The SHR used for the study had SAP values of between 230 and 280 mm Hg. The WKY used for the study at that moment had SAP values of between 160 and 200 mm Hg. Measurements of the SAP were taken from the animals periodically, every 2 hours, up to 8 hours post-administration of the products to be assayed; in addition, a SAP measurement was taken 24 hours after the administration of those products. As negative control (in order to establish the circadian variation of the SAP in probed rats) the measurements of the SAP obtained in rats which had been administered 1 ml of water by means of intragastric probe were used. As positive control, the measurements of the SAP obtained in rats which had been administered 50 mg/kg of Captopril (prototype ACEI drug) by means of intragastric probe were used. This dose of Captopril was administered to each rat in a volume of 1 ml. In order to establish the effect of the unhydrolysed egg white on the arterial pressure of the animals, similar assays to those described above were conducted, in which the animals were treated by the same procedure with 200 mg/kg of previously freeze-dried egg white (reference).
The results obtained are grouped and the mean±the standard error of measurement (SEM) is obtained for a minimum of 9 homogenous assays. […]

[2] = Antioxidant activity, ABTS radical cation decolorization assay (TEAC)
Text: In order to measure the antioxidant activity, the method developed by R. Re, N. Pellegrini, A. Proteggente, A. Pannala, M. Yang and C. Rice-Evans (Antioxidant activity applying an improved ABTS radical cation decolorization assay, Free Radical Biological Medicine, 1999, 26: 1231-1237) is used. The method is based on the disappearance of the radical ABTS^•+ (2,2-azinobis(3-ethylbenzothiazoline-6-sulphonic) acid) owing to the reducing action of different samples with antioxidant activity. […] The antioxidant activity is detected by the fall in the 734 nm absorbency time.
In order to generate the radical […], the compound ABTS (Sigma), dissolved in water at a concentration of 7 mM, is brought into contact with 2.45 mM potassium persulphate in a ratio of 1:2 for 24 hours in the absence of light. After 24 hours, the absorbency at 734 nm is adjusted to a value of 0.70 ±0.02 with 5 mM of phosphate buffer salt (PBS), 138 mM of NaCl, pH =7.4. In a standard experiment, 1 ml of this solution is added to 10 μl of the sample (1.5 mM) dissolved in 0.02 M sodium phosphate buffer, pH =6.5 The experiment is conducted in triplicate, with each sample being incubated with the radical ABTS^•+ for 10 minutes at 37° C., with readings of the absorbency at 734 nm being taken at 1, 6 and 10 minutes. Used as blank is 0.02 M sodium phosphate buffer, pH =6.5 and at the same time as the incubation of the samples is carried out, the radical […] is incubated without any antioxidant agent (control). The antioxidant activity of each sample is calculated with respect to the absorbency at 734 nm shown by the control. The antioxidant activity of the sample is expressed in relation to the antioxidant activity of TROLOX® (6-hydroxy-2,5,7,8-tetramethylchroman-2-carboxylic acid) (Sigma), analogous to vitamin E, by means of a TEAC value (Trolox equivalent antioxidant capacity) at a certain time.
Different ways of calculating the TEAC value have been developed. We use the method described by F. W. P. C. van Overlveld, G. R. M. M. Haenen, J. Rhemrev, J. P. W. Vermeiden and A. Bast (Tyrosine as important contributor to the antioxidant capacity of seminal plasma, Chemical and Biological Interactions, 2000, 127: 151-161), which is valid for calculating the TEAC value of a pure compound, which provokes a decrease in the absorbency which linearly increases as the concentration is increased. In this case, it would only be necessary to calculate a certain concentration of a compound in order to be able to calculate its TEAC value.
The value 0.2845 represents the decrease in absorbency caused by 1 mM of 6-hydroxy-2,5,7,8-tetramethylchroman-2-carboxylic acid.

CC[C@H](C)[C@H](NC(=O)[C@@H]1CCCN1C(=O)[C@H](Cc1ccc(O)cc1)NC(=O)[C@H](CCCNC(=N)N)NC(=O)[C@H](CCC(=O)O)NC(=O)[C@H](CCC(=O)O)NC(=O)[C@H](C)NC(=O)[C@@H](N)Cc1ccc(O)cc1)C(=O)N[C@@H](CC(C)C)C(=O)O [SEQ. ID. N^o 6] (H-YAEERYPIL-OH; N-terminus and C-terminus assumed)
change in SAP in normotense rats (in words) [1]: not in normotensed Wistar-Kyoto rats; also recorded: none of these compounds modifies the SAP
antioxidant activity towards free radicals (in words) [2]: possesses antioxidant activity
times more antioxidant activity than 6-hydroxy-2,5,7,8-tetramethylchroman-2-carboxylic acid ([2]; 1 mg versus 1 mg): 1.3 times
TEAC (Trolox equivalent antioxidant capacity) ([2]; 1 minute): 0.8
TEAC (Trolox equivalent antioxidant capacity) ([2]; 6 minutes): 1.2
TEAC (Trolox equivalent antioxidant capacity) ([2]; 10 minutes): 1.3
